Data from patent US11440913B2, “Aminoimidazopyridazines as kinase inhibitors” (BRISTOL-MYERS SQUIBB COMPANY, priority 2017, dated 2022).
Counter-ions that a name gives are not always drawn. Like-named read-outs stand apart in the source and are kept apart here.

How the values were obtained:
[1] = test system: MLKL phosphorylation in HT29-L23 human colorectal adenocarcinoma cells; assay: MLKL Phosphorylation High-Content Assay; assay type: cell-based; conditions: necroptosis induced with TNFα, SMAC mimetic and Z-VAD, 6 h, read-out: pMLKL (IC50)
Procedure, shortened: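 HT29-L23 cells pretreated 30 min at 37 °C with compound (6.25 to 0.106 μM final), then necroptosis induced with TNFα 35 ng/mL, SMAC mimetic 700 nM and Z-VAD 140 nM for 6 h. Fixed cells immunostained for MLKL pS358 and imaged; IC50 and Ymax from 4-parameter logistic fit.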

[2] = target: His-GST-TVMV-hRIPK1(1-324) (Homo sapiens (Human), UniProt Q13546); assay: RIPK1 HTRF Binding Assay; conditions: HTRF binding, 1 h at rt; read-out: RIPK1 (IC50)
His-GST-TVMV-hRIPK1(1-324), sequence (Q13546 1-324): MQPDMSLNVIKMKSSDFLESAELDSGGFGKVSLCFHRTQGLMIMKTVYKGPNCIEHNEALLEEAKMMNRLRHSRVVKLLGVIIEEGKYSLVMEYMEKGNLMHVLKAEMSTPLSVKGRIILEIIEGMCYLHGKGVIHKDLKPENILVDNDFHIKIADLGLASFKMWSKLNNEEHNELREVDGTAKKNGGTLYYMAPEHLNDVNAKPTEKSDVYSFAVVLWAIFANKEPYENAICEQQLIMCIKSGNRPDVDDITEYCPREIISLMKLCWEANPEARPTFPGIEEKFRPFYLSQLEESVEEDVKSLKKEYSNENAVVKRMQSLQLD
Procedure, shortened: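 HTRF probe-displacement binding: 1 nM His-GST-TVMV-hRIPK1(1-324) (baculovirus construct), 90.6 nM probe, 0.2 nM anti-GST-Tb in 20 mM HEPES, 10 mM MgCl2, 0.015% Brij-35, 4 mM DTT, 0.05 mg/mL BSA. Incubated 1 h at rt; FRET 520/495 nm ratio, inhibition relative to DMSO-only wells.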

SMILES | IC50 [1] | IC50 [2] | IC50 ([1]; Homo sapiens)
COc1nc(C)c(-c2ccc3nc(NC(C)=O)cn3n2)cc1C(=O)NC(C)c1cccc(OC(F)(F)F)c1 (stereo not shown) [Example 289, 5-{2-acetamidoimidazo[1,2-b]pyridazin-6-yl}-2-methoxy-6-methyl-N-{1-[3-(trifluoromethoxy)phenyl]ethyl}pyridine-3-carboxamide] | 16 nM | 16 nM | –
[2H]C([2H])([2H])Oc1nc(C)c(-c2ccc3nc(NC(C)=O)cn3n2)cc1C(=O)NCc1cc(F)cc(F)c1OC1CC(C)OC(C)C1 (stereo not shown) [Example 167, N-({2-[(2,6-dimethyloxan-4-yl)oxy]-3,5-difluorophenyl}methyl)-5-{2-acetamidoimidazo[1,2-b]pyridazin-6-yl}-2-(deutero)methoxy-6-methylpyridine-3-carboxamide] | – | 18 nM | 13 nM
CC(=O)Nc1cn2nc(-c3cc(C(=O)NCCC(C)c4ccccc4)cnc3C)ccc2n1 (stereo not shown) [Example 231, 5-{2-acetamidoimidazo[1,2-b]pyridazin-6-yl}-6-methyl-N-(3-phenylbutyl)pyridine-3-carboxamide] | 60 nM | 6 nM | –
COc1nc(C)c(-c2ccc3nc(NC(C)=O)cn3n2)cc1C(=O)NCc1cccc(OC(F)(F)F)c1 [Example 319, 5-{2-acetamidoimidazo[1,2-b]pyridazin-6-yl}-2-methoxy-6-methyl-N-{[3-(trifluoromethoxy)phenyl]methyl}pyridine-3-carboxamide] | – | 15 nM | 29 nM
COc1ncc(-c2ccc3nc(NC(C)=O)cn3n2)cc1C(=O)NCc1c(F)cccc1OC1CCCC1 [Example 156, N-{[2-(cyclopentyloxy)-6-fluorophenyl]methyl}-5-{2-acetamidoimidazo[1,2-b]pyridazin-6-yl}-2-methoxypyridine-3-carboxamide] | – | 2 nM | 3 nM
CC(=O)Nc1cn2nc(-c3cc(C(=O)NCc4cccc(F)c4OCC4CC4)cnc3C)ccc2n1 [Example 232, N-{[2-(cyclopropylmethoxy)-3-fluorophenyl]methyl}-5-{2-acetamidoimidazo[1,2-b]pyridazin-6-yl}-6-methylpyridine-3-carboxamide] | – | 4 nM | 4 nM
[2H]C([2H])(NC(=O)c1cc(-c2ccc3nc(NC(=O)CC)cn3n2)cnc1OC)c1cc(OC(F)(F)F)ccc1F [Example 244, N-{[2-fluoro-5-(trifluoromethoxy)phenyl](deutero)methyl}-2-methoxy-5-{2-propanamidoimidazo[1,2-b]pyridazin-6-yl}pyridine-3-carboxamide] | – | 257 nM | 4 nM
COc1nc(C)c(-c2ccc3nc(NC(C)=O)cn3n2)cc1C(=O)NCc1cccc(OCC2CC2)c1 [Example 309, N-{[3-(cyclopropylmethoxy)phenyl]methyl}-5-{2-acetamidoimidazo[1,2-b]pyridazin-6-yl}-2-methoxy-6-methylpyridine-3-carboxamide] | – | 19 nM | 46 nM
CC(=O)Nc1cn2nc(-c3cc(C(=O)NCc4cc(F)ccc4OCC(F)(F)F)c(C)nc3C)ccc2n1 [Example 72, 5-{2-acetamidoimidazo[1,2-b]pyridazin-6-yl}-N-{[5-fluoro-2-(2,2,2-trifluoroethoxy)phenyl]methyl}-2,6-dimethylpyridine-3-carboxamide, TFA] | – | 17 nM | 30 nM
CC(=O)Nc1cn2nc(-c3cc(C(=O)NCc4cc(F)cc(F)c4OCC4CCCC4)c(C)nc3C)ccc2n1 [Example 90, N-{[2-(cyclopentylmethoxy)-3,5-difluorophenyl]methyl}-5-{2-acetamidoimidazo[1,2-b]pyridazin-6-yl}-2,6-dimethylpyridine-3-carboxamide] | – | 5 nM | 3 nM
CC(=O)Nc1cn2nc(-c3cc(C(=O)N[C@H](C)c4cc(C(F)(F)F)ccc4F)c(C)nc3C)ccc2n1 [Example 69, 5-{2-acetamidoimidazo[1,2-b]pyridazin-6-yl}-N-[(1R)-1-[2-fluoro-5-(trifluoromethyl)phenyl]ethyl]-2,6-dimethylpyridine-3-carboxamide] | – | 15 nM | 23 nM
CC(=O)Nc1cn2nc(-c3cnc(Cl)c(C(=O)NCc4cccc(OC(F)(F)F)c4)c3)ccc2n1 [Example 272, 2-chloro-5-{2-acetamidoimidazo[1,2-b]pyridazin-6-yl}-N-{[3-(trifluoromethoxy)phenyl]methyl}pyridine-3-carboxamide, TFA] | 122 nM | 26 nM | –
CC(=O)Nc1cn2nc(-c3cnc(C)c(C(=O)NCc4ccc(F)c(F)c4OCC4CC4)c3)ccc2n1 [Example 209, N-{[2-(cyclopropylmethoxy)-3,4-difluorophenyl]methyl}-5-{2-acetamidoimidazo [1,2-b]pyridazin-6-yl}-2-methylpyridine-3-carboxamide] | – | 133 nM | 202 nM
CC(=O)Nc1cn2nc(-c3cncc(C(=O)N[C@H](C)c4cc(OC(F)(F)F)ccc4F)c3)ccc2n1 [Example 235, 5-{2-acetamidoimidazo[1,2-b]pyridazin-6-yl}-N-[(1R)-1-[2-fluoro-5-(trifluoromethoxy)phenyl]ethyl]pyridine-3-carboxamide] | – | 345 nM | 355 nM
Cc1ncc(-c2ccc3nc(NC(=O)CO)cn3n2)cc1C(=O)N[C@H](C)c1cc(OC(F)(F)F)ccc1F [Example 185, N-[(1R)-1-[2-fluoro-5-(trifluoromethoxy)phenyl]ethyl]-5-[2-(2-hydroxyacetamido)imidazo [1,2-b]pyridazin-6-yl]-2-methylpyridine-3-carboxamide] | – | 30 nM | 81 nM
CC(=O)Nc1cn2nc(-c3cnc(C)c(C(=O)NC(C)c4ccccc4OC(F)(F)F)c3)ccc2n1 (stereo not shown) [Example 202, 5-{2-acetamidoimidazo[1,2-b]pyridazin-6-yl}-2-methyl-N-{1-[2-(trifluoromethoxy)phenyl]ethyl}pyridine-3-carboxamide] | 34 nM | 32 nM | –
COc1ncc(-c2ccc3nc(NC(C)=O)cn3n2)cc1C(=O)N[C@H](C)c1cc(OC(F)(F)F)ccc1F [Example 109, 5-{2-acetamidoimidazo[1,2-b]pyridazin-6-yl}-N-[(1R)-1-[2-fluoro-5-(trifluoromethoxy)phenyl](2,2,2-deutero)ethyl]-2-methoxypyridine-3-carboxamide] | 85 nM | 32 nM | –
Cc1ncc(-c2ccc3nc(NC(=O)CO)cn3n2)cc1C(=O)NCc1cc(C(F)(F)F)ccc1F [Example 183, N-{[2-fluoro-5-(trifluoromethyl)phenyl]methyl}-5-[2-(2-hydroxyacetamido)imidazo [1,2-b]pyridazin-6-yl]-2-methylpyridine-3-carboxamide] | – | 166 nM | 392 nM
[2H]C([2H])([2H])Oc1ncc(-c2ccc3nc(NC(C)=O)cn3n2)cc1C(=O)NCc1ccccc1OC(F)(F)F [Example 14, 5-{2-acetamidoimidazo[1,2-b]pyridazin-6-yl}-2-(D3)methoxy-N-{[2-(trifluoromethoxy)phenyl]methyl}pyridine-3-carboxamide] | – | 33 nM | 69 nM
COc1nc(C)c(-c2ccc3nc(NC(C)=O)cn3n2)cc1C(=O)NCc1c(F)cc(F)cc1OCC1CCCC1 [Example 308, N-{[2-(cyclopentylmethoxy)-4,6-difluorophenyl]methyl}-5-{2-acetamidoimidazo[1,2-b]pyridazin-6-yl}-2-methoxy-6-methylpyridine-3-carboxamide] | – | 8 nM | 11 nM
